Data published in US20240197820A1, “Bacteriocin for new application” (priority 2021, published 2024).
“Also recorded” adds a separate entry of the source. No end group written: not given here.

Key:
S. aureus ATCC 6538 [1] = experiment: Antimicrobial activity test on inoculated M17 agar plates (inhibition halo); format: cell-based, Staphylococcus aureus; conditions: 1 mg/ml, overnight incubation
Description: (§1) Bacterial strains were grown overnight in liquid culture on rotary shakers or on agar plates using M17 media supplemented with 0.5% glucose. S. aureus ATCC 6538 and S. epidermidis ATCC 12228 liquid cultures and agar plates were grown anaerobically at 37° C. Culture volume utilized in MIC assays was 200 μl.
(§2) Antimicrobial activity of bacteriocin peptides was tested on M17 agar plates in Examples 1 and 3.
(§3) In Example 1, 2 μl of cerein 7B peptide (SEQ ID NO: 2) aqueous solutions at a concentration of 1 mg/ml were deposited on inoculated M17 agar plates of S. aureus ATCC 6538 and S. epidermidis ATCC 12228. In the case of S. epidermidis ATCC 12228, an equivalent amount of aureocin A53 aqueous solution (1 mg/ml concentration) was used as positive control.
In Example 3, 5 μl of bacteriocin peptides (SEQ ID NO: 2, 4-51) aqueous solutions at a concentration of 1 mg/ml were deposited on inoculated M17 agar plates of S. aureus ATCC 6538. After overnight incubation, the presence of an inhibition halo was considered as a positive result of antimicrobial activity.

[2] = test system: S. epidermidis ATCC 12228; experiment: as above; format: cell-based, Staphylococcus epidermidis; conditions: 2 μl of aqueous solution, 1 mg/ml, overnight incubation
Description: as §1, §2, §3

S. aureus ATCC 6538 [3] = experiment: MIC assay in liquid culture (endpoint OD600); format: cell-based, Staphylococcus aureus; conditions: liquid culture 200 μl, M17 + 0.5% glucose, 37° C., overnight, 2-fold dilutions from 250 μg/ml
Description: as §1
(§4) Determination of MIC values of a cerein 7B peptide (SEQ ID NO: 2) was performed in liquid cultures of S. aureus ATCC 6538 and S. epidermidis ATCC 12228. Growth was assessed by measuring endpoint OD600 values in a Spectramax i3 (Molecular Devices, CA, USA). Minimum inhibitory concentration (MIC) was defined as the lowest concentration which inhibited 50% of the growth of cultures as compared to reference cultures not exposed to the peptide. Concentration of the peptide was 250 μg/ml in well 11, diluted 2-fold per subsequent well as shown in Table 3 (concentrations rounded to the second decimal): […]

[4] = test system: S. epidermidis ATCC 12228; experiment: MIC assay in liquid culture (endpoint OD600); format: cell-based, Staphylococcus epidermidis; conditions: tested concentrations 0.24 to 250 μg/ml
Description: as §1, §4

[5] = test system: Lactococcus lactis LMG IL 1403; conditions: cited from earlier work

Row | Substance | antimicrobial activity of mutants (inhibition halo) (S. aureus ATCC 6538 [1]; 5 μl of aqueous solution, M17 agar plate, peptides synthesized in vitro (PURExpress)) | inhibition halo (antimicrobial activity on agar plate) [2] | inhibition halo (antimicrobial activity on agar plate) (S. aureus ATCC 6538 [1]; 2 μl of aqueous solution, chemically synthesized peptide) | MIC (lowest concentration which inhibited 50% of the growth of cultures) (S. aureus ATCC 6538 [3]) [µg/mL] | growth inhibition in MIC assay [4] | activity against Lactococcus lactis LMG IL 1403 [5]
1 | GWWNSWGKCVAGTIGGAGTGGLGGAAAGSAVPVIGTGIGGAIGGVSGGLTGAATFCW (mutant 48 (E2)) [SEQ ID NO: 51] | did not compromise its antimicrobial activity | – | – | – | – | –
2 | GWWNSWGKCVAGTIGGAGTGGLGGAAAGSAVPVIGTGIGGAIGGVSGGLTGAATFC (cysteines drawn unpaired) [cerein 7B] | – | no inhibition halo was visible; also recorded: no inhibition halo was present | An inhibition halo was visible | 15.63 | No growth inhibition was observed | demonstrated its activity
3 | aureocin A53 [reference compound] | – | an inhibition halo was present | – | – | – | –
